Assay results: patent US9409864B2, “Sulfonamide TRPA1 receptor antagonists” (ARIO PHARMA LIMITED, priority 2013, dated 2016)
pIC50: −log10 of the molar value.

Target: T1, native human TRPA1 receptors (Homo sapiens, UniProt O75762)
T1 construct: stably expressing native human TRPA1 receptors were used; endogenous in cells; host or cells: A549 human lung adenocarcinoma epithelial cell line
Experiment: PF-4840154 (1 μM)-induced Ca2+ fluorescence measurements in A549 cell line
Assay type: cell-based
Details: for inhibition at 10 µM: 10 μM compound against 1 μM PF-4840154, A549 cells; for pIC50: against PF-4840154 (1 μM)-evoked [Ca2+]i mobilization
Method: PF-4840154 (1 μM)-Induced Ca^2+ Fluorescence Measurements in A549 Cell Line
Human lung adenocarcinoma epithelial cell line (A549) stably expressing native human TRPA1 receptors were used. The cells were cultured in medium consisting of Eagle's minimal essential medium (EMEM) supplemented with 10% fetal bovine serum (FBS), penicillin (100 IU/ml), streptomycin ([…]), L-glutamine (2 mM), sodium bicarbonate (2.5 g/L) and HEPES (24 mM). Cells were kept at 37° C. in 5% CO2/humidified air. For the experiments the cells were seeded at a density of 16,000 cells/well into 96-well black, clear-bottom plates. After 24 hours incubation the cells were loaded with medium supplemented with 2.5 mM probenecid, 3 μM of the calcium sensitive fluorescent dye Fluo-4 AM and 0.01% pluronic acid, for 30 min at 37° C. Afterwards the loading solution was aspirated and 100 μl/well of assay buffer: Hank's Balanced Salt Solution (HBSS) supplemented with 2.5 mM probenecid and 500 μM Brilliant Black (Aldrich) was added. Stock solutions (100 mM) of ligands were made in Dimethyl Sulfoxide (DMSO) and stored at −20° C. Serial dilutions of ligands for experimental use were made in HBSS buffer. After placing both plates (cell culture and compound plate) into the FlexStation II (Molecular Device, Union City, Calif. 94587, US), fluorescence changes were measured. On-line additions were carried out in a volume of […]. To facilitate drug diffusion into the wells in antagonist type experiments, the studies were performed at 36.5° C. and three cycles of mixing (25 μl from each well moved up and down 3 times) were performed immediately after antagonist injection to the wells. All exemplified compounds were tested alone (to address residual agonistic activity) and against 1 μM of PF-4840154 to address inhibitory activity at the initial concentration of 10 μM. For selected examples the entire inhibitory concentration-response curves were constructed and the IC50 value calculated.
PF-4840154 (1 μM) increased [Ca^2+] in the vast majority (95%) of cultured cells which were thereby identified as TRPA1 expressing cells.

T1 sequence (O75762 whole entry): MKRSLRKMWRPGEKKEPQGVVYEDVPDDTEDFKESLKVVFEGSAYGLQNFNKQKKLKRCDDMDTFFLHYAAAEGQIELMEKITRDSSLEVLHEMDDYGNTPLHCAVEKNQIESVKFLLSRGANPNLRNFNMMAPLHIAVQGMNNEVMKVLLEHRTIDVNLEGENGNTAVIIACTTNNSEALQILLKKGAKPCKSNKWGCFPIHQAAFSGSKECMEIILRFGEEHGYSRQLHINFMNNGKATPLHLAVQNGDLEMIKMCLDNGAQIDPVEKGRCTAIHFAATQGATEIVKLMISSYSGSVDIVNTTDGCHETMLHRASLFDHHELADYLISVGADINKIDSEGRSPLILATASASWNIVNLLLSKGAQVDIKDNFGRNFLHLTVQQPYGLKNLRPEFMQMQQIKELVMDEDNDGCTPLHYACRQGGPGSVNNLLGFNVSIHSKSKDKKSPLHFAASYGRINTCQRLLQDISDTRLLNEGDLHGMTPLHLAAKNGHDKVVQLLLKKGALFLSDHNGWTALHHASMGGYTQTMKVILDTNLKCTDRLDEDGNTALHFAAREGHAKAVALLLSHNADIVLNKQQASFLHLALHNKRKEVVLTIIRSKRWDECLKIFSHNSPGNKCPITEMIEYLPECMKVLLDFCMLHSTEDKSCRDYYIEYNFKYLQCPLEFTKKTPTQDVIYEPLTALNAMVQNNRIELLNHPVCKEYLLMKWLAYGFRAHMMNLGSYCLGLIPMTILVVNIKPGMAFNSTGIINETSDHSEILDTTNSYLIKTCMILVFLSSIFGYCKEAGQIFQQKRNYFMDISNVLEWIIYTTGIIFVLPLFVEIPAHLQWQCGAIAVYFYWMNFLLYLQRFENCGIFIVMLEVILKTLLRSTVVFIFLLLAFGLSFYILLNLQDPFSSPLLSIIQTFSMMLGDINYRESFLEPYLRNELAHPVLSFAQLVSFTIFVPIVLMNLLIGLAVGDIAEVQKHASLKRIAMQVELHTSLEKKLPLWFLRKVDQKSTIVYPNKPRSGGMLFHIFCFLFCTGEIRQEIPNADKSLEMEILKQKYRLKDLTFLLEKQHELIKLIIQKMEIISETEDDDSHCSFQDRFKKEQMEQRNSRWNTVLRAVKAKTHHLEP

Compound	inhibition at 10 µM [%]	pIC50 (A549 cells)	IC50 (against PF-4840154 (1 μM), A549 cells, cells printed in μM) [µM]
C=C(C(=O)NCc1cc(-c2ccc(C(F)(F)F)cc2)nc(N(C)C)c1)N(CC)S(=O)(=O)c1ccc(Cl)s1 [Example 39, 2-[(5-chloro-2-thienyl)sulfonyl-ethyl-amino]-N-[[2-dimethylamino-6-[4-(trifluoromethyl)phenyl]-4-pyridyl]methyl]prop-2-enamide]	100	7.70	–
C=C(C(=O)NCc1cc(-c2ccc(C(F)(F)F)cc2)nc(N(C)C)c1)N(CC)S(=O)(=O)c1cccs1 [Example 41, N-[[2-dimethylamino-6-[4-(trifluoromethyl)phenyl]-4-pyridyl]methyl]-2-(ethyl(2-thienylsulfonyl)amino)prop-2-enamide]	96	6.87	–
C=C(C(=O)NCc1cc(-c2ccc(C(F)(F)F)cc2)nc(N2CCOCC2)c1)N(CC)S(=O)(=O)c1ccc(F)cc1 [Example 42, 2-[ethyl-(4-fluorophenyl)sulfonyl-amino]-N-[[2-morpholino-6-[4-(trifluoromethyl)phenyl]-4-pyridyl]methyl]prop-2-enamide]	100	6.98	–
C=C(C(=O)NCc1cc(-c2ccc(C(F)(F)F)cc2)nc(N2CCOCC2)c1)N(CC)S(=O)(=O)c1ccc(Cl)s1 [Example 43, 2-[(5-chloro-2-thienyl)sulfonyl-ethyl-amino]-N-[[2-morpholino-6-[4-(trifluoromethyl)phenyl]-4-pyridyl]methyl]prop-2-enamide]	100	7.32	–
C=C(C(=O)NCc1cc(OC(C)C)nc(-c2ccc(C(F)(F)F)cc2)c1)N(CC)S(=O)(=O)c1ccc(F)cc1 [Example 44, 2-[ethyl-(4-fluorophenyl)sulfonyl-amino]-N-[[2-isopropoxy-6-[4-(trifluoromethyl)phenyl]-4-pyridyl]methyl]prop-2-enamide]	100	7.74	–
CCN(C1(C(=O)NCc2cc(-c3ccc(C(F)(F)F)cc3)nc(N(C)C)c2)CC1)S(=O)(=O)c1ccc(F)cc1 [Example 45, N-[[2-dimethylamino-6-[4-(trifluoromethyl)phenyl]-4-pyridyl]methyl]-1-[ethyl-(4-fluorophenyl)sulfonyl-amino]cyclopropanecarboxamide]	100	6.82	–
CCN(C1(C(=O)NCc2ccnc(-c3ccc(C(F)(F)F)cc3)c2)CC1)S(=O)(=O)c1ccc(Cl)s1 [Example 46, 1-[(5-chloro-2-thienyl)sulfonyl-ethyl-amino]-N-[[2-[4-(trifluoromethyl)phenyl]-4-pyridyl]methyl]cyclopropanecarboxamide]	97	7.20	–
CCN(C1(C(=O)NCc2cccc(-c3ccc(OC(F)(F)F)cc3)c2)CC1)S(=O)(=O)c1ccc(Cl)s1 [Example 47, 1-[(5-chloro-2-thienyl)sulfonyl-ethyl-amino]-N-[[3-[4-(trifluoromethoxy)phenyl]phenyl]methyl]cyclopropanecarboxamide]	96	6.95	–
CCN(C1(C(=O)NCc2cc(OC)nc(-c3ccc(C(F)(F)F)cc3)c2)CC1)S(=O)(=O)c1ccc(F)cc1 [Example 48, 1-[ethyl-(4-fluorophenyl)sulfonyl-amino]-N-[[2-methoxy-6-[4-(trifluoromethyl)phenyl]-4-pyridyl]methyl]cyclopropanecarboxamide]	96	6.59	–
CCN(C1(C(=O)NCc2cc(OC(C)C)nc(-c3ccc(C(F)(F)F)cc3)c2)CC1)S(=O)(=O)c1ccc(F)cc1 [Example 49, 1-[ethyl-(4-fluorophenyl)sulfonyl-amino]-N-[[2-isopropoxy-6-[4-(trifluoromethyl)phenyl]-4-pyridyl]methyl]cyclopropanecarboxamide]	98	7.02	–
CCOc1cc(CNC(=O)C2(N(CC)S(=O)(=O)c3ccc(F)cc3)CC2)cc(-c2ccc(C(F)(F)F)cc2)n1 [Example 52, N-[[2-ethoxy-6-[4-(trifluoromethyl)phenyl]-4-pyridyl]methyl]-1-[ethyl-(4-fluorophenyl)sulfonyl-amino]cyclopropanecarboxamide]	99	7.06	–
C=C(C(=O)NCc1cc[n+]([O-])c(-c2ccc(C(F)(F)F)cc2)c1)N(CC)S(=O)(=O)c1ccc(F)cc1 [Example 54, 2-[ethyl-(4-fluorophenyl)sulfonyl-amino]-N-[[1-oxido-2-[4-(trifluoromethyl)phenyl]pyridin-1-ium-4-yl]methyl]prop-2-enamide]	47	–	> 10
C=C(C(=O)NCc1cccc(-c2ccc(OC(F)(F)F)cc2)c1)N(CC)S(=O)(=O)c1ccc(Cl)s1 [Example 55, 2-[(5-chloro-2-thienyl)sulfonyl-ethyl-amino]-N-[[3-[4-(trifluoromethoxy)phenyl]phenyl]methyl]prop-2-enamide]	100	7.51	–
C=C(C(=O)NCc1ccnc(-c2ccc(C(F)(F)F)cc2)c1)N(C)S(=O)(=O)c1ccc(F)cc1 [Example 56, 2-[(4-fluorophenyl)sulfonyl-methyl-amino]-N-[[2-[4-(trifluoromethyl)phenyl]-4-pyridyl]methyl]prop-2-enamide]	100	6.56	–
CN(C1(C(=O)NCc2cccc(-c3ccc(OC(F)(F)F)cc3)c2)CC1)S(=O)(=O)c1ccc(F)cc1 [Example 57, 1-[(4-fluorophenyl)sulfonyl-methyl-amino]-N-[[3-[4-(trifluoromethoxy)phenyl]phenyl]methyl]cyclopropanecarboxamide]	97	6.56	–
CN(C1(C(=O)NCc2cccc(-c3ccc(C(F)(F)F)cc3)c2)CC1)S(=O)(=O)c1ccc(F)cc1 [Example 58, 1-[(4-fluorophenyl)sulfonyl-methyl-amino]-N-[[3-[4-(trifluoromethyl)phenyl]phenyl]methyl]cyclopropanecarboxamide]	100	6.80	–
CCN(C1(C(=O)NCc2cc(-c3ccc(C(F)(F)F)cc3)ccn2)CC1)S(=O)(=O)c1ccc(F)cc1 [Example 60, 1-[ethyl-(4-fluorophenyl)sulfonyl-amino]-N-[[4-[4-(trifluoromethyl)phenyl]-2-pyridyl]methyl]cyclopropanecarboxamide]	100	6.37	–
CCN(C1(C(=O)NCc2cc(-c3ccc(OC(F)(F)F)cc3)nc(N3CCCC3)c2)CC1)S(=O)(=O)c1ccc(F)cc1 [Example 61, 1-[ethyl-(4-fluorophenyl)sulfonyl-amino]-N-[[2-pyrrolidin-1-yl-6-[4-(trifluoromethoxy)phenyl]-4-pyridyl]methyl]cyclopropanecarboxamide]	95	6.11	–
CCN(C1(C(=O)NCc2cc(-c3ccc(C(F)(F)F)cc3)nc(N3CCOCC3)c2)CC1)S(=O)(=O)c1ccc(F)cc1 [Example 62, 1-[ethyl-(4-fluorophenyl)sulfonyl-amino]-N-[[2-morpholino-6-[4-(trifluoromethyl)phenyl]-4-pyridyl]methyl] cyclopropanecarboxamide]	100	6.18	–
C=C(C(=O)NCc1cc(-c2ccc(OC(F)(F)F)cc2)nc(N2CCN(CC3CC3)CC2)c1)N(CC)S(=O)(=O)c1ccc(F)cc1 [Example 63, N-[[2-[4-(cyclopropylmethyl)piperazin-1-yl]-6-[4-(trifluoromethoxy)phenyl]-4-pyridyl]methyl]-2-[ethyl-(4-fluorophenyl)sulfonyl-amino]prop-2-enamide]	99	6.76	–
CCN(C1(C(=O)NCc2cc(-c3ccc(C(F)(F)F)cc3)nc(N3CCN(CC4CC4)CC3)c2)CC1)S(=O)(=O)c1ccc(F)cc1 [Example 64, N-[[2-[4-(cyclopropylmethyl)piperazin-1-yl]-6-[4-(trifluoromethyl)phenyl]-4-pyridyl]methyl]-1-[ethyl-(4-fluorophenyl)sulfonyl-amino]cyclopropanecarboxamide]	99	6.47	–
CCN(C1(C(=O)NCc2cc(-c3ccc(C(F)(F)F)cc3)nc(N3CCN(CC4CC4)CC3)c2)CC1)S(=O)(=O)c1ccc(Cl)s1 [Example 65, 1-[(5-chloro-2-thienyl)sulfonyl-ethyl-amino]-N-[[2-[4-(cyclopropylmethyl)piperazin-1-yl]-6-[4-(trifluoromethyl)phenyl]-4-pyridyl]methyl]cyclopropanecarboxamide]	100	6.49	–
